The nature of the data set: Solubility limit of the natural sweetener in pure solvents (estimated). To be noted: for Solubility limit in ethyl lactate: pure ethyl lactate; for Solubility limit in glycerol: pure glycerol. The class given is physicochemical. As for the experimental part:
As used herein, “solubility at 25° C.” or “solubility at RT” is meant to represent the thermodynamic, equilibrium solubility of a natural sweetener at 25° C. or at RT. […] Subsequently, even once the temperature is brought back to a lower temperature, for example to 25° C., the solid compound may remain in solution for a certain amount of time while being supersaturated. However, this is an apparent solubility due to a non-equilibrium, metastable state with limited shelf-life stability, and therefore is distinguished from thermodynamic solubility at equilibrium. Thermodynamic solubility can, for example, be determined with the so-called shake flask method at a controlled temperature. Alternatively, it can be determined by slowly heating the compound and recording the solubilization temperature after complete dissolution.

With `C=C1C[C@@]23CC[C@H]4[C@@](C)(CCC[C@@]4(C)C(=O)O[C@@H]4O[C@H](CO)[C@@H](O)[C@H](O)[C@H]4O)[C@@H]2CC[C@]1(O[C@@H]1O[C@H](CO)[C@@H](O)[C@H](O[C@@H]2O[C@H](CO)[C@@H](O)[C@H](O)[C@H]2O)[C@H]1O[C@@H]1O[C@H](CO)[C@@H](O)[C@H](O)[C@H]1O)C3` [Reb A (99.5%), Rebaudioside A], the “Solubility limit in ethyl lactate” value is reported as under 0.3% and the “Solubility limit in glycerol” value is “about 2 % wt”.
Turning to `C=C1C[C@@]23CC[C@H]4[C@@](C)(CCC[C@@]4(C)C(=O)O[C@@H]4O[C@H](CO)[C@@H](O)[C@H](O[C@@H]5O[C@H](CO)[C@@H](O)[C@H](O)[C@H]5O)[C@H]4O[C@@H]4O[C@H](CO)[C@@H](O)[C@H](O)[C@H]4O)[C@@H]2CC[C@]1(O[C@@H]1O[C@H](CO)[C@@H](O)[C@H](O[C@@H]2O[C@H](CO)[C@@H](O)[C@H](O)[C@H]2O)[C@H]1O[C@@H]1O[C@H](CO)[C@@H](O)[C@H](O)[C@H]1O)C3` [Reb M (95%), Rebaudioside M], the “Solubility limit in ethyl lactate” value was under 0.7% and the “Solubility limit in glycerol” value is “about 9 % wt”.
The matching figures for Rebaudioside B [Reb B (95%)]: under 1% and “about 16 % wt”.

The values above are taken from patent publication US20260206809A1, “NATURAL SWEETENER COMPOSITIONS CONTAINING ALKYL LACTATES AND USES THEREOF” (Firmenich SA, priority 2022, published 2026).
